What was measured:
Assay in all cases: relative viability (nuclei count vs DMSO), 5 days (fraction); higher = more cells survive
EHT 1864 + Linsitinib = compound: C1COCCN1CC2=CC(=O)C(=CO2)OCCCCCSC3=C4C=CC(=CC4=NC=C3)C(F)(F)F [EHT 1864] + C[C@]1(O)C[C@@H](c2nc(-c3ccc4ccc(-c5ccccc5)nc4c3)c3c(N)nccn32)C1 [Linsitinib] (partner 1 µM)
Procedure, shortened: (§1)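 Lung cancer cell lines were seeded in 1536-well plates and dosed by pin tool the next day, with either a single drug or a fixed anchor-drug dose combined with five library-drug doses (not always all listed) spaced in √10 steps. Five days later, one step fixed the cells and stained their nuclei (final 0.05% Triton X-100, 1% formaldehyde, 1 ug/ml Hoechst), and nuclei were counted on 4× images. Relative viability is the nuclei count in treated wells divided by the count in vehicle wells, and each value is the median of duplicate plates.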

EHT 1864 + Pemetrexed = compound: C1COCCN1CC2=CC(=O)C(=CO2)OCCCCCSC3=C4C=CC(=CC4=NC=C3)C(F)(F)F [EHT 1864] + Nc1nc2[nH]cc(CCc3ccc(C(=O)N[C@@H](CCC(=O)O)C(=O)O)cc3)c2c(=O)[nH]1 [Pemetrexed] (partner 0.2 µM)
Procedure, shortened: as §1

EHT 1864 + Vorinostat = compound: C1COCCN1CC2=CC(=O)C(=CO2)OCCCCCSC3=C4C=CC(=CC4=NC=C3)C(F)(F)F [EHT 1864] + O=C(CCCCCCC(=O)Nc1ccccc1)NO [Vorinostat] (partner 1 µM)
Procedure, shortened: as §1

EHT 1864 + Olaparib = compound: C1COCCN1CC2=CC(=O)C(=CO2)OCCCCCSC3=C4C=CC(=CC4=NC=C3)C(F)(F)F [EHT 1864] + O=C(c1cc(Cc2n[nH]c(=O)c3ccccc23)ccc1F)N1CCN(C(=O)C2CC2)CC1 [Olaparib] (partner 8 µM)
Procedure, shortened: as §1

## NCI-H1437
EHT 1864 + Linsitinib; first compound 0.04 µM
  relative viability: 0.905
EHT 1864 + Linsitinib; first compound 0.1265 µM
  relative viability: 0.917
EHT 1864 + Linsitinib; first compound 0.4 µM
  relative viability: 0.974
EHT 1864 + Linsitinib; first compound 1.265 µM
  relative viability: 0.776
EHT 1864 + Linsitinib; first compound 4 µM
  relative viability: 0.655
EHT 1864 + Pemetrexed; first compound 0.04 µM
  relative viability: 0.321
EHT 1864 + Pemetrexed; first compound 0.1265 µM
  relative viability: 0.302
EHT 1864 + Pemetrexed; first compound 0.4 µM
  relative viability: 0.263
EHT 1864 + Pemetrexed; first compound 1.265 µM
  relative viability: 0.286
EHT 1864 + Pemetrexed; first compound 4 µM
  relative viability: 0.246
EHT 1864 + Vorinostat; first compound 0.04 µM
  relative viability: 0.84
EHT 1864 + Vorinostat; first compound 0.1265 µM
  relative viability: 0.866
EHT 1864 + Vorinostat; first compound 0.4 µM
  relative viability: 0.757
EHT 1864 + Vorinostat; first compound 1.265 µM
  relative viability: 0.542
EHT 1864 + Vorinostat; first compound 4 µM
  relative viability: 0.479
EHT 1864 + Olaparib; first compound 0.04 µM
  relative viability: 0.621
EHT 1864 + Olaparib; first compound 0.1265 µM
  relative viability: 0.587
EHT 1864 + Olaparib; first compound 0.4 µM
  relative viability: 0.622
EHT 1864 + Olaparib; first compound 1.265 µM
  relative viability: 0.523
EHT 1864 + Olaparib; first compound 4 µM
  relative viability: 0.523

## NCI-H1651
EHT 1864 + Linsitinib; first compound 0.04 µM
  relative viability: 1.07
EHT 1864 + Linsitinib; first compound 0.1265 µM
  relative viability: 0.885
EHT 1864 + Linsitinib; first compound 0.4 µM
  relative viability: 0.992
EHT 1864 + Linsitinib; first compound 1.265 µM
  relative viability: 0.931
EHT 1864 + Linsitinib; first compound 4 µM
  relative viability: 0.996
EHT 1864 + Pemetrexed; first compound 0.04 µM
  relative viability: 0.529
EHT 1864 + Pemetrexed; first compound 0.1265 µM
  relative viability: 0.662
EHT 1864 + Pemetrexed; first compound 0.4 µM
  relative viability: 0.565
EHT 1864 + Pemetrexed; first compound 1.265 µM
  relative viability: 0.553
EHT 1864 + Pemetrexed; first compound 4 µM
  relative viability: 0.55
EHT 1864 + Vorinostat; first compound 0.04 µM
  relative viability: 0.55
EHT 1864 + Vorinostat; first compound 0.1265 µM
  relative viability: 0.541
EHT 1864 + Vorinostat; first compound 0.4 µM
  relative viability: 0.554
EHT 1864 + Vorinostat; first compound 1.265 µM
  relative viability: 0.561
EHT 1864 + Vorinostat; first compound 4 µM
  relative viability: 0.599
EHT 1864 + Olaparib; first compound 0.04 µM
  relative viability: 0.165
EHT 1864 + Olaparib; first compound 0.1265 µM
  relative viability: 0.184
EHT 1864 + Olaparib; first compound 0.4 µM
  relative viability: 0.177
EHT 1864 + Olaparib; first compound 1.265 µM
  relative viability: 0.174
EHT 1864 + Olaparib; first compound 4 µM
  relative viability: 0.191

## NCI-H1666
EHT 1864 + Linsitinib; first compound 0.04 µM
  relative viability: 0.828
EHT 1864 + Linsitinib; first compound 0.1265 µM
  relative viability: 0.74
EHT 1864 + Linsitinib; first compound 0.4 µM
  relative viability: 0.837
EHT 1864 + Linsitinib; first compound 1.265 µM
  relative viability: 0.73
EHT 1864 + Linsitinib; first compound 4 µM
  relative viability: 0.912
EHT 1864 + Pemetrexed; first compound 0.04 µM
  relative viability: 1.02
EHT 1864 + Pemetrexed; first compound 0.1265 µM
  relative viability: 0.831
EHT 1864 + Pemetrexed; first compound 0.4 µM
  relative viability: 0.896
EHT 1864 + Pemetrexed; first compound 1.265 µM
  relative viability: 0.786
EHT 1864 + Pemetrexed; first compound 4 µM
  relative viability: 0.843
EHT 1864 + Vorinostat; first compound 0.04 µM
  relative viability: 1.02
EHT 1864 + Vorinostat; first compound 0.1265 µM
  relative viability: 0.987
EHT 1864 + Vorinostat; first compound 0.4 µM
  relative viability: 0.899
EHT 1864 + Vorinostat; first compound 1.265 µM
  relative viability: 0.986
EHT 1864 + Vorinostat; first compound 4 µM
  relative viability: 1.05
EHT 1864 + Olaparib; first compound 0.04 µM
  relative viability: 0.732
EHT 1864 + Olaparib; first compound 0.1265 µM
  relative viability: 0.756
EHT 1864 + Olaparib; first compound 0.4 µM
  relative viability: 0.73
EHT 1864 + Olaparib; first compound 1.265 µM
  relative viability: 0.839
EHT 1864 + Olaparib; first compound 4 µM
  relative viability: 0.775

## NCI-H1734
EHT 1864 + Linsitinib; first compound 0.04 µM
  relative viability: 0.867
EHT 1864 + Linsitinib; first compound 0.1265 µM
  relative viability: 0.902
EHT 1864 + Linsitinib; first compound 0.4 µM
  relative viability: 0.863
EHT 1864 + Linsitinib; first compound 1.265 µM
  relative viability: 0.919
EHT 1864 + Linsitinib; first compound 4 µM
  relative viability: 0.77
EHT 1864 + Pemetrexed; first compound 0.04 µM
  relative viability: 0.45
EHT 1864 + Pemetrexed; first compound 0.1265 µM
  relative viability: 0.385
EHT 1864 + Pemetrexed; first compound 0.4 µM
  relative viability: 0.463
EHT 1864 + Pemetrexed; first compound 1.265 µM
  relative viability: 0.394
EHT 1864 + Pemetrexed; first compound 4 µM
  relative viability: 0.432
EHT 1864 + Vorinostat; first compound 0.04 µM
  relative viability: 0.94
EHT 1864 + Vorinostat; first compound 0.1265 µM
  relative viability: 0.532
EHT 1864 + Vorinostat; first compound 0.4 µM
  relative viability: 0.818
EHT 1864 + Vorinostat; first compound 1.265 µM
  relative viability: 0.751
EHT 1864 + Vorinostat; first compound 4 µM
  relative viability: 0.837
EHT 1864 + Olaparib; first compound 0.04 µM
  relative viability: 0.71
EHT 1864 + Olaparib; first compound 0.1265 µM
  relative viability: 0.64
EHT 1864 + Olaparib; first compound 0.4 µM
  relative viability: 0.619
EHT 1864 + Olaparib; first compound 1.265 µM
  relative viability: 0.679
EHT 1864 + Olaparib; first compound 4 µM
  relative viability: 0.635

## NCI-H1755
EHT 1864 + Linsitinib; first compound 0.04 µM
  relative viability: 0.983
EHT 1864 + Linsitinib; first compound 0.1265 µM
  relative viability: 0.907
EHT 1864 + Linsitinib; first compound 0.4 µM
  relative viability: 0.956
EHT 1864 + Linsitinib; first compound 1.265 µM
  relative viability: 0.927
EHT 1864 + Linsitinib; first compound 4 µM
  relative viability: 0.962
EHT 1864 + Pemetrexed; first compound 0.04 µM
  relative viability: 0.477
EHT 1864 + Pemetrexed; first compound 0.1265 µM
  relative viability: 0.376
EHT 1864 + Pemetrexed; first compound 0.4 µM
  relative viability: 0.389
EHT 1864 + Pemetrexed; first compound 1.265 µM
  relative viability: 0.468
EHT 1864 + Pemetrexed; first compound 4 µM
  relative viability: 0.388
EHT 1864 + Vorinostat; first compound 0.04 µM
  relative viability: 1
EHT 1864 + Vorinostat; first compound 0.1265 µM
  relative viability: 0.808
EHT 1864 + Vorinostat; first compound 0.4 µM
  relative viability: 0.748
EHT 1864 + Vorinostat; first compound 1.265 µM
  relative viability: 0.75
EHT 1864 + Vorinostat; first compound 4 µM
  relative viability: 0.811
EHT 1864 + Olaparib; first compound 0.04 µM
  relative viability: 0.912
EHT 1864 + Olaparib; first compound 0.1265 µM
  relative viability: 0.817
EHT 1864 + Olaparib; first compound 0.4 µM
  relative viability: 0.822
EHT 1864 + Olaparib; first compound 1.265 µM
  relative viability: 0.817
EHT 1864 + Olaparib; first compound 4 µM
  relative viability: 0.829

## NCI-H1793
EHT 1864 + Linsitinib; first compound 0.1265 µM
  relative viability: 0.775
EHT 1864 + Linsitinib; first compound 0.4 µM
  relative viability: 0.888
EHT 1864 + Linsitinib; first compound 1.265 µM
  relative viability: 0.696
EHT 1864 + Linsitinib; first compound 4 µM
  relative viability: 0.984
EHT 1864 + Pemetrexed; first compound 0.04 µM
  relative viability: 0.674
EHT 1864 + Pemetrexed; first compound 0.1265 µM
  relative viability: 0.699
EHT 1864 + Pemetrexed; first compound 0.4 µM
  relative viability: 0.929
EHT 1864 + Pemetrexed; first compound 1.265 µM
  relative viability: 0.814
EHT 1864 + Pemetrexed; first compound 4 µM
  relative viability: 0.828
EHT 1864 + Vorinostat; first compound 0.04 µM
  relative viability: 0.656
EHT 1864 + Vorinostat; first compound 0.1265 µM
  relative viability: 0.403
EHT 1864 + Vorinostat; first compound 0.4 µM
  relative viability: 0.768
EHT 1864 + Vorinostat; first compound 1.265 µM
  relative viability: 0.879
EHT 1864 + Vorinostat; first compound 4 µM
  relative viability: 0.935
EHT 1864 + Olaparib; first compound 0.04 µM
  relative viability: 0.797
EHT 1864 + Olaparib; first compound 0.1265 µM
  relative viability: 0.736
EHT 1864 + Olaparib; first compound 0.4 µM
  relative viability: 0.971
EHT 1864 + Olaparib; first compound 1.265 µM
  relative viability: 0.681
EHT 1864 + Olaparib; first compound 4 µM
  relative viability: 0.874

## NCI-H1915
EHT 1864 + Linsitinib; first compound 0.04 µM
  relative viability: 1.13
EHT 1864 + Linsitinib; first compound 0.4 µM
  relative viability: 1.04
EHT 1864 + Linsitinib; first compound 1.265 µM
  relative viability: 1.1
EHT 1864 + Linsitinib; first compound 4 µM
  relative viability: 1.08
EHT 1864 + Pemetrexed; first compound 0.04 µM
  relative viability: 0.474
EHT 1864 + Pemetrexed; first compound 0.4 µM
  relative viability: 0.52
EHT 1864 + Pemetrexed; first compound 1.265 µM
  relative viability: 0.5
EHT 1864 + Pemetrexed; first compound 4 µM
  relative viability: 0.477
EHT 1864 + Vorinostat; first compound 0.04 µM
  relative viability: 0.501
EHT 1864 + Vorinostat; first compound 0.4 µM
  relative viability: 0.517
EHT 1864 + Vorinostat; first compound 1.265 µM
  relative viability: 0.478
EHT 1864 + Vorinostat; first compound 4 µM
  relative viability: 0.564
EHT 1864 + Olaparib; first compound 0.04 µM
  relative viability: 0.287
EHT 1864 + Olaparib; first compound 0.4 µM
  relative viability: 0.251
EHT 1864 + Olaparib; first compound 1.265 µM
  relative viability: 0.257
EHT 1864 + Olaparib; first compound 4 µM
  relative viability: 0.257
